Data: US20260217706A1, “HETEROCYCLIC COMPOUNDS, PREPARATION METHOD THEREFOR AND USE THEREOF” (GUANGZHOU YUFAN NANTU BIOTECHNOLOGIES CO., LTD, priority 2023, published 2026)

Target: CBL-B protein (Homo sapiens, UniProt Q13191)
Assay: CBL-B binding experiment (Streptavidin-Tb cryptate / Ligand L1 displacement)
Conditions: 8 nM CBL-B protein, 25° C., 60 minutes; Ki=Relative IC50/2
Method: The reaction system mainly includes 1× buffer, 20 mM HEPES pH 7.5, 150 mM NaCl, 0.01% Triton X-100, 0.5 mM TCEP, and 0.1% ug/ml BSA. The compound is continuously diluted with DMSO for 10 concentration points, and 150 nL is transferred to the experimental plate. The experimental reaction begins after adding 8 nM of CBL-B protein and the reaction is carried out at 25° C. for 60 minutes. […] After an additional 60 minutes of incubation at room temperature, the experimental plate is read using an EnVision plate. The luminescence signal values were converted to percentage inhibition rates. Inhibition %=(Sample value−Maximum value)/(Minimum value−Maximum value)×100. The minimum value refers to the measured value in the wells without CBL-B protein but with DMSO and Ligand, while the maximum value refers to the measured value in the wells with DMSO, CBL-B protein, and Ligand. The IC50 values are calculated by XLFit (version 5.3.1.3) in Excel. Equation: Y=Bottom+(Top−Bottom)/(1+(IC50/X)^HillSlope); Ki=Relative IC50/2.

CBL-B protein, sequence (Q13191 whole entry): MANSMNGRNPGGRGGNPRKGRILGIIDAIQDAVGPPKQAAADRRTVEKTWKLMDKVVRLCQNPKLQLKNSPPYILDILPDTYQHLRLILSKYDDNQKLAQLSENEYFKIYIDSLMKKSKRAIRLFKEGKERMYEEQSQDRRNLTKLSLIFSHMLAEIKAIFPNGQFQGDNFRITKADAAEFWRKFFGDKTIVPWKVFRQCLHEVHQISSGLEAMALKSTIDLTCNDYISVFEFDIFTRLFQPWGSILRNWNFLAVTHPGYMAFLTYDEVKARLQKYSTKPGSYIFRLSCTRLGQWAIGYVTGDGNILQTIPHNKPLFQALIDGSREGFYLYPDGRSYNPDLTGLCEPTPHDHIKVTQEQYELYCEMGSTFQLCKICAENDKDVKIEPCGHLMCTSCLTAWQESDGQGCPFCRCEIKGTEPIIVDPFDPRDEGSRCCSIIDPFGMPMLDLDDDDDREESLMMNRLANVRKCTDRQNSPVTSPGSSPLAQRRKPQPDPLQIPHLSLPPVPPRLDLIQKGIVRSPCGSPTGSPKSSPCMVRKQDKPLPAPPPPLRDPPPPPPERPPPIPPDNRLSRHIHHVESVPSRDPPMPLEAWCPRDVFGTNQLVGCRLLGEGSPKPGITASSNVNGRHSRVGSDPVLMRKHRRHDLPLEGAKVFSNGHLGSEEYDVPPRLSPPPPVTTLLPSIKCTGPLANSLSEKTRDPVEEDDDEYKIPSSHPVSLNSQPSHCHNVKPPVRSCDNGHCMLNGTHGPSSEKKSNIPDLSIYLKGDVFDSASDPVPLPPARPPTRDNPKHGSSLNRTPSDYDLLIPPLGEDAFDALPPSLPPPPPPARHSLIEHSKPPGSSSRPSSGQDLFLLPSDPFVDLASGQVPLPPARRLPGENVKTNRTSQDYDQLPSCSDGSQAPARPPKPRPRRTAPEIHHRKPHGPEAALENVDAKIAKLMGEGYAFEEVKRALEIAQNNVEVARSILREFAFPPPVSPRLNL

Ki, 50 to 100 nM:
C[C@H]1CCCN(Cc2cc3c(C4CC4)cn(-c4cccc([C@]5(Cc6nncn6C)C[C@@H](C)C5)c4)c(=O)c3[nH]2)C1 [Compound T036, 4-cyclopropyl-6-(3-((1r,3S)-3-methyl-1-((4-methyl-4H-1,2,4-triazol-3-yl)methyl)cyclobutyl)phenyl)-2-(((S)-3-methylpiperidin-1-yl)methyl)-1,6-dihydro-7H-pyrrolo[2,3-c]pyridin-7-one]

Ki, < 50 nM:
C[C@@H](NCc1cc2c(C(F)(F)F)cn(-c3cccc(C4(c5nncn5C)CCC4)c3)c(=O)c2[nH]1)C(C)(C)C (racemic) [Compound T044, 6-[3-[1-(4-methyl-1,2,4-triazol-3-yl)cyclobutyl]phenyl]-2-[[[rac-(1R)-1,2,2-trimethylpropyl]amino]methyl]-4-(trifluoromethyl)-1H-pyrrolo[2,3-c]pyridin-7-one]
Cn1cnnc1C1(c2cccc(-n3cc(C(F)(F)F)c4cc(CN5CCCC(C(F)F)C5)[nH]c4c3=O)c2)CCC1 (racemic) [Compound T113, 6-[3-[1-(4-methyl-1,2,4-triazol-3-yl)cyclobutyl]phenyl]-2-[[rac-(3R)-3-(difluoromethyl)-1-piperidyl]methyl]-4-(trifluoromethyl)-1H-pyrrolo[2,3-c]pyridin-7-one]
C[C@H]1CCCN(Cc2cc3ccn(-c4cccc(C5(Cc6nncn6C)COC5)c4)c(=O)c3[nH]2)C1 [Compound T001, (S)-6-(3-(3-((4-methyl-4H-1,2,4-triazol-3-yl)methyl)oxetan-3-yl)phenyl)-2-((3-methylpiperidin-1-yl)methyl)-1,6-dihydro-7H-pyrrolo[2,3-c]pyridin-7-one]
Cc1cn(-c2cccc(C3(Cc4nncn4C)COC3)c2)c(=O)c2[nH]c(CN3CCC[C@H](C)C3)cc12 [Compound T003, 4-methyl-2-[[(3S)-3-methyl-1-piperidyl]methyl]-6-[3-[3-[(4-methyl-1,2,4-triazol-3-yl)methyl]oxetan-3-yl]phenyl]-1H-pyrrolo[2,3-c]pyridin-7-one]
C=Cc1cn(-c2cccc([C@]3(c4nncn4C)C[C@@H](C)C3)c2)c(=O)c2[nH]c(CN3CCC[C@H](C)C3)cc12 [Compound T004, 6-(3-((1s,3R)-3-methyl-1-(4-methyl-4H-1,2,4-triazol-3-yl)cyclobutyl)phenyl)-2-(((S)-3-methylpiperidin-1-yl)methyl)-4-vinyl-1,6-dihydro-7H-pyrrolo[2,3-c]pyridin-7-one]
Cn1cnnc1CC1(c2cccc(-n3cc(C4CC4)c4cc(CN5CCCCC5)[nH]c4c3=O)c2)COC1 [Compound T006, 4-cyclopropyl-6-[3-[3-[(4-methyl-1,2,4-triazol-3-yl)methyl]oxetan-3-yl]phenyl]-2-(1-piperidylmethyl)-1H-pyrrolo[2,3-c]pyridin-7-one]
C[C@H]1CCCN(Cc2cc3c(C4CC4)cn(-c4cccc([C@H](c5nncn5C)C5CCC5)c4)c(=O)c3[nH]2)C1 [Compound T012, 6-(3-((R)-cyclobutyl(4-methyl-4H-1,2,4-triazol-3-yl)methyl)phenyl)-4-cyclopropyl-2-(((S)-3-methylpiperidin-1-yl)methyl)-1,6-dihydro-7H-pyrrolo[2,3-c]pyridin-7-one]
Cn1cnnc1C1(c2cccc(-n3cc(C(F)(F)F)c4cc(CN5CC[C@@H](O)C5)[nH]c4c3=O)c2)CCC1 [Compound T015, 2-[[(3R)-3-hydroxypyrrolidin-1-yl]methyl]-6-[3-[1-(4-methyl-1,2,4-triazol-3-yl)cyclobutyl]phenyl]-4-(trifluoromethyl)-1H-pyrrolo[2,3-c]pyridin-7-one]
Cn1cnnc1C1(c2cccc(-n3cc(C(F)(F)F)c4cc(CN5CC[C@H](O)C5)[nH]c4c3=O)c2)CCC1 [Compound T016, 2-[[(3S)-3-hydroxypyrrolidin-1-yl]methyl]-6-[3-[1-(4-methyl-1,2,4-triazol-3-yl)cyclobutyl]phenyl]-4-(trifluoromethyl)-1H-pyrrolo[2,3-c]pyridin-7-one]
CC(C)c1cn(-c2cccc(C3(Cc4nncn4C)COC3)c2)c(=O)c2[nH]c(CN3CCC[C@H](C)C3)cc12 [Compound T022, 4-isopropyl-2-[[(3S)-3-methyl-1-piperidyl]methyl]-6-[3-[3-[(4-methyl-1,2,4-triazol-3-yl)methyl]oxetan-3-yl]phenyl]-1H-pyrrolo[2,3-c]pyridin-7-one]
Cn1cnnc1C1(c2cccc(-n3cc(C(F)(F)F)c4cc(CN5C[C@@H]6C[C@H]5CO6)[nH]c4c3=O)c2)CCC1 [Compound T031, 6-[3-[1-(4-methyl-1,2,4-triazol-3-yl)cyclobutyl]phenyl]-2-[[(1 S,4S)-2-oxa-5-azabicyclo [2.2.1]heptan-5-yl]methyl]-4-(trifluoromethyl)-1H-pyrrolo[2,3-c]pyridin-7-one]
Cn1cnnc1C1(c2cccc(-n3cc(C(F)(F)F)c4cc(CN5C[C@H]6C[C@@H]5CO6)[nH]c4c3=O)c2)CCC1 [Compound T032, 6-[3-[1-(4-methyl-1,2,4-triazol-3-yl)cyclobutyl]phenyl]-2-[[(1R,4R)-2-oxa-5-azabicyclo[2.2.1]heptan-5-yl]methyl]-4-(trifluoromethyl)-1H-pyrrolo[2,3-c]pyridin-7-one]
Cn1cnnc1C1(c2cccc(-n3cc(C(F)(F)F)c4cc(CN5CCC[C@@H](O)C5)[nH]c4c3=O)c2)CCC1 [Compound T039, 2-[[(3R)-3-hydroxy-1-piperidyl]methyl]-6-[3-[1-(4-methyl-1,2,4-triazol-3-yl)cyclobutyl]phenyl]-4-(trifluoromethyl)-1H-pyrrolo[2,3-c]pyridin-7-one]
Cn1cnnc1C1(c2cccc(-n3cc(C(F)(F)F)c4cc(CN5CCC[C@@H](F)C5)[nH]c4c3=O)c2)CCC1 [Compound T046, 2-[[(3R)-3-fluoro-1-piperidyl]methyl]-6-[3-[1-(4-methyl-1,2,4-triazol-3-yl)cyclobutyl]phenyl]-4-(trifluoromethyl)-1H-pyrrolo[2,3-c]pyridin-7-one]
Cn1cnnc1C1(c2cccc(-n3cc(C(F)(F)F)c4cc(CN5CCC[C@H](F)C5)[nH]c4c3=O)c2)CCC1 [Compound T048, 2-[[(3S)-3-fluoro-1-piperidyl]methyl]-6-[3-[1-(4-methyl-1,2,4-triazol-3-yl)cyclobutyl]phenyl]-4-(trifluoromethyl)-1H-pyrrolo[2,3-c]pyridin-7-one]
Cn1cnnc1C1(c2cccc(-n3cc(C(F)(F)F)c4cc(CN5C[C@@H](F)[C@@H](F)C5)[nH]c4c3=O)c2)CCC1 [Compound T049, 2-[[(3R,4S)-3,4-difluoropyrrolidin-1-yl]methyl]-6-[3-[1-(4-methyl-1,2,4-triazol-3-yl)cyclobutyl]phenyl]-4-(trifluoromethyl)-1H-pyrrolo[2,3-c]pyridin-7-one]
Cn1cnnc1C1(c2cccc(-n3cc(C(F)(F)F)c4cc(CNCC(F)(F)CO)[nH]c4c3=O)c2)CCC1 [Compound T050, 2-[[(2,2-difluoro-3-hydroxy-propyl)amino]methyl]-6-[3-[1-(4-methyl-1,2,4-triazol-3-yl)cyclobutyl]phenyl]-4-(trifluoromethyl)-1H-pyrrolo[2,3-c]pyridin-7-one]
Cn1cnnc1C1(c2cccc(-n3cc(C(F)(F)F)c4cc(CN5CCC6(CC5)CC6)[nH]c4c3=O)c2)CCC1 [Compound T051, 2-(6-azaspiro[2.5]octan-6-ylmethyl)-6-[3-[1-(4-methyl-1,2,4-triazol-3-yl)cyclobutyl]phenyl]-4-(trifluoromethyl)-1H-pyrrolo[2,3-c]pyridin-7-one]
Cn1cnnc1C1(c2cccc(-n3cc(C(F)(F)F)c4cc(CN5C6CCCC5CC6)[nH]c4c3=O)c2)CCC1 [Compound T052, 2-(8-azabicyclo[3.2.1]octan-8-ylmethyl)-6-[3-[1-(4-methyl-1,2,4-triazol-3-yl)cyclobutyl]phenyl]-4-(trifluoromethyl)-1H-pyrrolo[2,3-c]pyridin-7-one]
CN(Cc1cc2c(C(F)(F)F)cn(-c3cccc(C4(c5nncn5C)CCC4)c3)c(=O)c2[nH]1)CC(F)(F)F [Compound T057, 2-((methyl(2,2,2-trifluoroethyl)amino)methyl)-6-(3-(1-(4-methyl-4H-1,2,4-triazol-3-yl)cyclobutyl)phenyl)-4-(trifluoromethyl)-1,6-dihydro-7H-pyrrolo[2,3-c]pyridin-7-one]
C[C@H]1CCCN(Cc2cc3c(C(F)(F)F)cn(-c4cccc([C@@H](c5nncn5C)C5CCC5)c4)c(=O)c3[nH]2)C1 [Compound T059, 6-(3-((S)-cyclobutyl (4-methyl-4H-1,2,4-triazol-3-yl)methyl)phenyl)-2-(((S)-3-methylpiperidin-1-yl)methyl)-4-(trifluoromethyl)-1,6-dihydro-7H-pyrrolo[2,3-c]pyridin-7-one]
C[C@H]1CCCN(Cc2cc3c(C(F)(F)F)cn(-c4cccc(C5(Cc6nncn6C)COC5)c4)c(=O)c3[nH]2)C1 [Compound T061, 2-[[(3S)-3-methyl-1-piperidyl]methyl]-6-[3-[3-[(4-methyl-1,2,4-triazol-3-yl)methyl]oxetan-3-yl]phenyl]-4-(trifluoromethyl)-1H-pyrrolo[2,3-c]pyridin-7-one]
Cn1cnnc1C1(c2cccc(-n3cc(C(F)(F)F)c4cc(CN5CCC[C@](C)(O)C5)[nH]c4c3=O)c2)CCC1 [Compound T064, (S)-2-((3-hydroxy-3-methylpiperidin-1-yl)methyl)-6-(3-(1-(4-methyl-4H-1,2,4-triazol-3-yl)cyclobutyl)phenyl)-4-(trifluoromethyl)-1,6-dihydro-7H-pyrrolo[2,3-c]pyridin-7-one]
